Data as given in article PMC10707468, “Pharmacokinetics of Novel Dopamine Transporter Inhibitor CE-123 and Modafinil with a Focus on Central Nervous System Distribution” (International Journal of Molecular Sciences, 2023).

Tests used:
CYP2B6 = target: T1, CYP2B6 (Homo sapiens, UniProt P20813); assay: CYP P450 inhibition in HLMs (Eurofins Panlabs); type: in vitro ADME; conditions: S-CE-123 10 µM
T1 construct: from tissue; host or cells: human liver microsomes (HLMs)
T1 sequence (P20813 1-491): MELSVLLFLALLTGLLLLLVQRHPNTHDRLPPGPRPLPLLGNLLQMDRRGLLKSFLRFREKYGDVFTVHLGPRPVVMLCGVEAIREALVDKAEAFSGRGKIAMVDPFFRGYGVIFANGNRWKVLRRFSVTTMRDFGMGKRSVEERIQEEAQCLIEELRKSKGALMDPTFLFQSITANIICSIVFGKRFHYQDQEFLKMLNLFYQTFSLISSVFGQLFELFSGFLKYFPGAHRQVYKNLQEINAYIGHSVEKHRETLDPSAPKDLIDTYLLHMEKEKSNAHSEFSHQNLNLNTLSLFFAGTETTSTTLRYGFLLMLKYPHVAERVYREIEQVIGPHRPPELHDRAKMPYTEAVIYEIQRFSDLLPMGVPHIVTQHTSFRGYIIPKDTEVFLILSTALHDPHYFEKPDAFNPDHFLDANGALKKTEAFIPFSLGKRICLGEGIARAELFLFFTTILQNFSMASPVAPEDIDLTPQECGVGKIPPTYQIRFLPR
Description: (§1) In vitro metabolism assays for the cytochrome (CYP) P450 inhibition of S-CE-123 was outsourced to Eurofins Panlabs (St. Charles, MO, USA, study number 100050638). Briefly, 0.1 mg/mL of the HLMs was incubated for 10 min at 37 °C with substrate (10 µM phenacetin for CYP1A, 100 µM bupropion for CYP2B6, 10 µM amodiaquine for CYP2C8, 10 µM diclofenac for CYP2C9, 0.5 µM omeprazole for CYP2C19, 5 µM dextromethorphan for CYP2D6, 5 µM midazolam for CYP3A, and 50 µM testosterone for CYP3A4) in the presence/absence of S-CE-123 (10 µM). The peak areas corresponding to the metabolite of each substrate were recorded. The percent of control activity was then calculated by comparing the peak area obtained in the presence of the test compound to that obtained in the absence of the test compound. Subsequently, the percent inhibition was calculated by subtracting the percent control activity from 100 for each compound. The IC50 values (concentration causing a half-maximal inhibition of control values) were determined using non-linear regression analysis of the concentration–response curve using Hill equation curve fitting.

CYP1A = target: T2, CYP1A (Homo sapiens, UniProt P05177); assay: CYP P450 inhibition in HLMs (Eurofins Panlabs); type: in vitro ADME; conditions: microsomes, S-CE-123 10 µM, range given for CYP2C9, CYP1A and CYP2D6 together, read-out: inhibition of control values
T2 construct: from tissue; host or cells: human liver microsomes (HLMs)
T2 sequence (P05177 2-516 limits assumed): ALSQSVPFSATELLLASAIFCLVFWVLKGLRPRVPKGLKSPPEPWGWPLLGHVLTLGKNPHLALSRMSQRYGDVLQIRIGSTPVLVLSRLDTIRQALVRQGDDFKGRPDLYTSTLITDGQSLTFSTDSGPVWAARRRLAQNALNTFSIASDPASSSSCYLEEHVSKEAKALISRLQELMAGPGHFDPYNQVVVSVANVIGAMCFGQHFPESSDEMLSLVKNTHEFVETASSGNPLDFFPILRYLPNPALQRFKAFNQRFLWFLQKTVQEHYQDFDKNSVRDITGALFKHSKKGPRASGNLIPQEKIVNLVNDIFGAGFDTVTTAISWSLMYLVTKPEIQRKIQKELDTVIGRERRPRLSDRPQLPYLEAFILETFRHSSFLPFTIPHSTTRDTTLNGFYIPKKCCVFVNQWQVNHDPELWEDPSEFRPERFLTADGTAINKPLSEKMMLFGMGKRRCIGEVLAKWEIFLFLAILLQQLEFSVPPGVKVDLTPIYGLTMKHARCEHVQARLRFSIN
Description: as §1

SERT = system: SERT; set-up: method as in PMID 29410048; conditions: cited from earlier work
CYP2C19 = CYP2C19 (Homo sapiens, UniProt P33261); assay: CYP P450 inhibition in HLMs (Eurofins Panlabs); type: in vitro ADME; set-up: from tissue; host or cells: human liver microsomes (HLMs); conditions: S-CE-123 10 µM
Description: as §1

CYP2C9 = CYP2C9 (Homo sapiens, UniProt P11712); assay: CYP P450 inhibition in HLMs (Eurofins Panlabs); type: in vitro ADME; set-up: from tissue; host or cells: human liver microsomes (HLMs); conditions: microsomes, S-CE-123 10 µM, range given for CYP2C9, CYP1A and CYP2D6 together, read-out: inhibition of control values
Description: as §1

human DAT = conditions: cell lines expressing human DAT; read-out: Inhibitory constant, Ki; cited from earlier work

Sequence of CYP2C19 (P33261 whole entry): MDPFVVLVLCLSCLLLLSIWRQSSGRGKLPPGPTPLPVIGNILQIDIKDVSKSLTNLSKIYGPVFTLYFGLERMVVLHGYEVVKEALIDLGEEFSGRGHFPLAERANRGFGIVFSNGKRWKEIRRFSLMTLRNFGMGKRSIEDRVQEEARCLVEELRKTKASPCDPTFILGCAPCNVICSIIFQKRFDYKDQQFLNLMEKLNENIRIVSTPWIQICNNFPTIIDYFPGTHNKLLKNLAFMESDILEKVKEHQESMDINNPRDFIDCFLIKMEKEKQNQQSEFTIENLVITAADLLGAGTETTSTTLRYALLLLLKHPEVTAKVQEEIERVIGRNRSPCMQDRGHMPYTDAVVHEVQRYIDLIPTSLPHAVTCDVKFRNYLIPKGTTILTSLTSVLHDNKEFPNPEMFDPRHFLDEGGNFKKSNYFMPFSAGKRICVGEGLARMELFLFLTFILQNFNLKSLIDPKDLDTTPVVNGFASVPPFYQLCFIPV
Sequence of CYP2C9 (P11712 whole entry): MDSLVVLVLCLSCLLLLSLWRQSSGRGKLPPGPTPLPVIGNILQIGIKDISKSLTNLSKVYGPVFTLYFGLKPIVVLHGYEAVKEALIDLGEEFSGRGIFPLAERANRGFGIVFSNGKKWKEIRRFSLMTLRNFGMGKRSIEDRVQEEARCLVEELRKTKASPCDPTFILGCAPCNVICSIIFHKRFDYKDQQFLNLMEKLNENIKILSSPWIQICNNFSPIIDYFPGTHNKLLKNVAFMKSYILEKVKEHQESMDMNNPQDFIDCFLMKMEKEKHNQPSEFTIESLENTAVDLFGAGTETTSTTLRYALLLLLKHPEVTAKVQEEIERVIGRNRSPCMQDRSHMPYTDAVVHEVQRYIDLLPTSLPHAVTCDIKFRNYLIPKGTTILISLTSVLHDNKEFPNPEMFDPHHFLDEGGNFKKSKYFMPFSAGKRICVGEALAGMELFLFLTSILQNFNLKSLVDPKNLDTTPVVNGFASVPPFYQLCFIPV

## [O-][S@@+](Cc1cncs1)C(c1ccccc1)c1ccccc1 [S-CE-123]
CYP2B6
  inhibition of control values: Low inhibition
CYP1A
  inhibition at 10 min, 10 µM: 47 to 68%
SERT
  activity on SERT: negligible activity
CYP2C19
  inhibition of control values: Low inhibition
CYP2C9
  inhibition at 10 min, 10 µM: 47 to 68%
Human DAT
  Ki: 0.61 µM
